# Test results taken from patent US11173160B2 (UNIVERSITY OF PITTSBURGH—OF THE COMMONWEALTH SYSTEM OF …, priority 2019, dated 2021).
# How the values were obtained:
# [1] = cited from earlier work
# [2] = system: normal astrocytes or neural stem cells; test: viability of normal cells treated with TG02; assay type: cell-based, human; conditions: nM ranges
# Excerpt: Brain gliomas express high levels of ERK5 (FIG. 29).
# Abl = Abl (Homo sapiens, UniProt P00519); conditions: cited from earlier work
# ALK = ALK (Homo sapiens, UniProt Q9UM73); conditions: cited from earlier work
# PAK2 = PAK2 (Homo sapiens, UniProt Q13177); conditions: cited from earlier work
# PAK2, sequence (Q13177 whole entry): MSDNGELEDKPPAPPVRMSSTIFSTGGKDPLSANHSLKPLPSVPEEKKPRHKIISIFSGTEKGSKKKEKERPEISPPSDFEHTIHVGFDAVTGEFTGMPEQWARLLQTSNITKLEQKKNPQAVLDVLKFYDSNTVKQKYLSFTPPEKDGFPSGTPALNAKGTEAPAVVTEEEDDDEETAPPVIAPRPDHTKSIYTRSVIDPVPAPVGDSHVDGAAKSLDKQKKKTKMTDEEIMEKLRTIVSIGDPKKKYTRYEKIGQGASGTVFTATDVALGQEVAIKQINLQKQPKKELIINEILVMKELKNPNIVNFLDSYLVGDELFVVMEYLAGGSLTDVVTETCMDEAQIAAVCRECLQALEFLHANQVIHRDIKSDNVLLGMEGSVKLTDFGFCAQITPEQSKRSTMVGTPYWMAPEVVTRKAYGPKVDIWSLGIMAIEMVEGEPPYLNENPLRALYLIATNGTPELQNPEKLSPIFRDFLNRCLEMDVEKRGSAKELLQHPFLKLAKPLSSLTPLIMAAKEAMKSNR
# [3] = system: ERK5 auto-phosphorylation and cleaved PARP in tumor; test: western blot of tumor lysates from treated mice; assay type: in vivo; conditions: mice sacrificed after 5 days of treatment with TG02
# Experimental: Total ERK5 was used as a loading control.
# All animal procedures were carried out ethically according to animal user protocols approved by Institutional Animal Care Committee (IACUC). 4-6 week-old non-obese diabetic severe combined immune deficiency male or female mice (NOD-SCID-Prkdc^scid) were injected with 1×10^5 SU-DIPG-13p cells or 1×10^5 SF8628 DIPG cells. Cells were re-suspended in 2 μl of PBS and injected into the pons/midbrain using a stereotactic frame (Stoelting) and automated cell injector (Stoelting) with cells delivered over 4 minutes. Coordinates were as follows from the Lambda suture (x=0.8 mm, y=−0.8 mm, z=−5.0 mm). […]
# IKK-β = IKK-β (Homo sapiens, UniProt O14920); conditions: cited from earlier work
# IKK-β, sequence (O14920 whole entry): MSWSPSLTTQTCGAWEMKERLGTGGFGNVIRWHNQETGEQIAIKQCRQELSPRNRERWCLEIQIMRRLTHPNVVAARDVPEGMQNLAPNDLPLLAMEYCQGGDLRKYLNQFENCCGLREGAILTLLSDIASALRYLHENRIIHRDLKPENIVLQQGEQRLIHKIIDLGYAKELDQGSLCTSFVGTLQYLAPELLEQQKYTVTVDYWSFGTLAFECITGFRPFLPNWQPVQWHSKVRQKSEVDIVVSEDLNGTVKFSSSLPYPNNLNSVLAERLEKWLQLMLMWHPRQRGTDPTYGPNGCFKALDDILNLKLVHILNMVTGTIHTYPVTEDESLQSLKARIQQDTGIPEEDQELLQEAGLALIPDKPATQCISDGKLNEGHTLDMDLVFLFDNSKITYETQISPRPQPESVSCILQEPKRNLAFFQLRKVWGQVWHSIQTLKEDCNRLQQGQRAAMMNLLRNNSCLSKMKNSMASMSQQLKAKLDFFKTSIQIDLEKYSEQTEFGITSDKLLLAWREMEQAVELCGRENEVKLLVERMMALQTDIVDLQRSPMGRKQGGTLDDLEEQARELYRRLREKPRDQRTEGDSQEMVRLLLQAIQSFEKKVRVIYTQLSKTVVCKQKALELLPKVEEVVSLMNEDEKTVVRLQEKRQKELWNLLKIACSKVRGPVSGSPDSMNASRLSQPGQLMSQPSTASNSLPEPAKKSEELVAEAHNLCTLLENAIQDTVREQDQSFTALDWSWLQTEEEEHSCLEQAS
# FLT3 = FLT3 (Homo sapiens, UniProt P36888); conditions: Source Invitrogen; 10-point titration in duplicates, done once; cited from earlier work
# CYP3A4 = CYP3A4 (Homo sapiens, UniProt P08684); conditions: cited from earlier work
# CYP3A4, sequence (P08684 whole entry): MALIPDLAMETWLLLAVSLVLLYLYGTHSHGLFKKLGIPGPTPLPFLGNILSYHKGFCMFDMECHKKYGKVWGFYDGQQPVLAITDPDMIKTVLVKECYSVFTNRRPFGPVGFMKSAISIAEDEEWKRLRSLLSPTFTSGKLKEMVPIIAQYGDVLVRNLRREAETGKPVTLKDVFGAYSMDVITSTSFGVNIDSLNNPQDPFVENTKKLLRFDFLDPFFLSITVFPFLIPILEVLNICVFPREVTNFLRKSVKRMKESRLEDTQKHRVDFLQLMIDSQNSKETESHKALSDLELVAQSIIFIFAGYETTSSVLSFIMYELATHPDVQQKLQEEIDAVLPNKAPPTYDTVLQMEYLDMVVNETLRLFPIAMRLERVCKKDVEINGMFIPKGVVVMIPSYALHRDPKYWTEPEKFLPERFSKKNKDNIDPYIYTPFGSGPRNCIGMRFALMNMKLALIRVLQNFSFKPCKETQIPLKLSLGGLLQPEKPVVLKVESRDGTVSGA
# [4] = tissue and plasma distribution after a single PO dose; assay type: in vivo, female nude mice
# Experimental: Three mice were sacrificed at a time 10 min, 30 min, 1, 2, 4, 8, and 24 hrs after dosing and pharmacokinetic levels were assessed.
# CK1α1 = CK1α1 (Homo sapiens, UniProt P48729); conditions: cited from earlier work
# CK1α1, sequence (P48729 whole entry): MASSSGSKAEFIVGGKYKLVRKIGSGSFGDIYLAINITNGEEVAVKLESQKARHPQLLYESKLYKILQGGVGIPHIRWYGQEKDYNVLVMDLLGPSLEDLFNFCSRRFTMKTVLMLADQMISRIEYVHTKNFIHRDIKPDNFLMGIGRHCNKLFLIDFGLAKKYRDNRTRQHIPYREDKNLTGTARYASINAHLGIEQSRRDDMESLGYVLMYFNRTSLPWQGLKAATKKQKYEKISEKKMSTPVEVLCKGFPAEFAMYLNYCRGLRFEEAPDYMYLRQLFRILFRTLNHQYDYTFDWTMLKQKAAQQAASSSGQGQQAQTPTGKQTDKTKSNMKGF
# [5] = target: (Homo sapiens, UniProt O15264); conditions: Source Invitrogen; 10-point titration in duplicates, done once; cited from earlier work
# (Homo sapiens, UniProt O15264), sequence (O15264 whole entry): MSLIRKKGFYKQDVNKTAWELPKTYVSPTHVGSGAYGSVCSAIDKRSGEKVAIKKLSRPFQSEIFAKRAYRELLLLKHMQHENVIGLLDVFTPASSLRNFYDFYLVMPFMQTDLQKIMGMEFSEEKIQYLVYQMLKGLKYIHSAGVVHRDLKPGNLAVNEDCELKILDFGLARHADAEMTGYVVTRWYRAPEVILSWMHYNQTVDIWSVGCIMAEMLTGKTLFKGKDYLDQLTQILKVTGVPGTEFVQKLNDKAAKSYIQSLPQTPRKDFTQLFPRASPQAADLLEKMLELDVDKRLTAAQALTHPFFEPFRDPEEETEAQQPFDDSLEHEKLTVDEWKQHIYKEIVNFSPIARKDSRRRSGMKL
# Chk1 = Chk1 (Homo sapiens, UniProt O14757); conditions: cited from earlier work
# Chk1, sequence (O14757 whole entry): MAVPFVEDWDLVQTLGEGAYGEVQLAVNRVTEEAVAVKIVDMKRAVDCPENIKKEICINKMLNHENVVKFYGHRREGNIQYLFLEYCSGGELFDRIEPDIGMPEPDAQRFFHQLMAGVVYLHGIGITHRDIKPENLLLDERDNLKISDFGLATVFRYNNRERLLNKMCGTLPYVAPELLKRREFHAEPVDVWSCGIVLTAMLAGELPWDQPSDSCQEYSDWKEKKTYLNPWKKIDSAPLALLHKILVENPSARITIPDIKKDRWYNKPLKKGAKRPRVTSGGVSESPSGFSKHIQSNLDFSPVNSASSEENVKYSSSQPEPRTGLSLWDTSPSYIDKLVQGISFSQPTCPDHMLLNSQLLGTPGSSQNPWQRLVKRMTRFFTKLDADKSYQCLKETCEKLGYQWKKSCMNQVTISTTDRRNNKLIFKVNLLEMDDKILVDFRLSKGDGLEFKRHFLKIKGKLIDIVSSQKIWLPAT
# ERK5 = ERK5 (Homo sapiens, UniProt Q13164); test: in vitro kinase assay of purified recombinant ERK5 and MYC; assay type: biochemical; conditions: ERK5 and ATP, 30 minutes at 30° C.
# Experimental: Purified active recombinant ERK5 protein was purchased from ThermoFisher Scientific (Cat #A32872) and purified recombinant MYC was purchased from Abcam (Cat #ab84132). Purified ERK5 and MYC were resuspended in 40 μl of 1× kinase buffer supplemented with […] ATP, 0.25 μg substrate, and 1.0 μg purified recombinant and active kinase. Samples were incubated in the presence or absence of an ERK5 inhibitor for 30 minutes at 30° C. The reaction was terminated with 20 μl 3×SDS sample buffer. Samples were then boiled at 100° C. for 5 minutes and then evaluated by western blotting using a phospho MYC ser62 antibody (1:1000). 1× Kinase Buffer recipe: 25 mM Tris (pH 7.5), 5 mM O-glycerophosphate, 2 mM DTT, 0.1 mM Na3VO4, 10 mM MgCl2.
# PKCε = PKCε (Homo sapiens, UniProt Q02156); conditions: cited from earlier work
# PKCε, sequence (Q02156 whole entry): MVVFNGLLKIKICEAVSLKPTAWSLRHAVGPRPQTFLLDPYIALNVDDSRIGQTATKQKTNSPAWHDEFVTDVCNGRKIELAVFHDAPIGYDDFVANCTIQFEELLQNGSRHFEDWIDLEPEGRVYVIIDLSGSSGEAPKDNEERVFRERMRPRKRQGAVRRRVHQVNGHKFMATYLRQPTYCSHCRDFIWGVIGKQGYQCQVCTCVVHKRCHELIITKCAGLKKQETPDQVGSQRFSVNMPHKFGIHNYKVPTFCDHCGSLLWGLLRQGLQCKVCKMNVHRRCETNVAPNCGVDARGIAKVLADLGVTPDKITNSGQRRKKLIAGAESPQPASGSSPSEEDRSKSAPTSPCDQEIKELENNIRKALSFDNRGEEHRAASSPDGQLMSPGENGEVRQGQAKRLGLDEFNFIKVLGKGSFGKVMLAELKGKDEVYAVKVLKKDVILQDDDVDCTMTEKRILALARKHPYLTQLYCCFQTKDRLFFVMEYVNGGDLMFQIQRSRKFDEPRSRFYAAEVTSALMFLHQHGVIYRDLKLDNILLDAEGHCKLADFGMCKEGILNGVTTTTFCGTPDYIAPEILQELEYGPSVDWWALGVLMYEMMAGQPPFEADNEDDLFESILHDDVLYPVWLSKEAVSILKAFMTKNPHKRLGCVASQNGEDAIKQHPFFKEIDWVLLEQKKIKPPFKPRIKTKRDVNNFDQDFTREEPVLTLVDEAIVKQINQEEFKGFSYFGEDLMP
# [6] = system: MYC in DIPG-IV and SF8628 cells; test: Western blot of phospho MYC S62 and total MYC; assay type: cell-based, human; conditions: TG02 100 nM
# Experimental: FIGS. 6A-6H provide that ERK5 inhibition reduced MYC protein stability. (6A) Schematic of identifying differentially expressed phospho-proteins in DIPG-IV cells expressing ERK5 and ERK5 knockdown. (6B) Ratio of phospho:total protein changes in ERK5 knockdown versus ERK5 control DIPG-IV cells. […] (6D) Western blot of MYC in DIPG-IV cells treated with Dox and MG132 (10 uM). (6E) Immunoprecipitation of MYC and ERK5 followed by western blot of ERK5 and MYC. […] (6G) Western blot of DIPG cells re-transfected with constitutively active MYC S62D in presence of ERK5 loss. (6H) Cell doubling times of control and ERK5 knockdown DIPG cells and the effect of MYC S62D rescue. SF8628 cells (left) and DIPG-IV cells (right).
# Cell pellets were lysed in PLC lysis buffer containing protease and phosphatase inhibitors (Roche Inc.). Protein lysates were quantified using the bicinchoninic acid (BCA) assay (Pierce Chemical Co., Rockford, Ill.). 30 μg of total protein lysate was loaded in 10% SDS-PAGE gels and electrophoresed. Proteins were transferred to PVDF membranes using a semi-dry transfer apparatus (Bio-Rad). […] Binding was detected using Chemiluminescence Reagent Plus (PerkinElmer Inc., MA, USA).
# Nek2 = Nek2 (Homo sapiens, UniProt P51955); conditions: cited from earlier work
# Nek2, sequence (P51955 whole entry): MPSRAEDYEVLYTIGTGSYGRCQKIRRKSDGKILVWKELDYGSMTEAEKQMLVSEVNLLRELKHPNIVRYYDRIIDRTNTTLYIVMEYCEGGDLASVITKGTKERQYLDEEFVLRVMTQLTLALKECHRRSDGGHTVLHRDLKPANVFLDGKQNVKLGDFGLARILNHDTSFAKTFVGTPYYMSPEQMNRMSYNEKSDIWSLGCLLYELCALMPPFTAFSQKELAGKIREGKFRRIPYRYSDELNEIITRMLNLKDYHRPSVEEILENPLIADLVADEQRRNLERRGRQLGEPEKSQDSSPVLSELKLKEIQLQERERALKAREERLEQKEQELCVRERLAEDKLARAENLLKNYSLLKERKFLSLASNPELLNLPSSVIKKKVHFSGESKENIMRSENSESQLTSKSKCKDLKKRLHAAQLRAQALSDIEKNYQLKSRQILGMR
# [7] = cited from earlier work; remark: listed apart in the source
# PKA = PKA (Homo sapiens, UniProt P17612); conditions: cited from earlier work
# CDK3 = CDK3 (Homo sapiens, UniProt Q00526); conditions: Source Millipore; 10-point titration in duplicates, done once; cited from earlier work
# IRAK4 = IRAK4 (Homo sapiens, UniProt Q9NWZ3); conditions: cited from earlier work
# IRAK4, sequence (Q9NWZ3 whole entry): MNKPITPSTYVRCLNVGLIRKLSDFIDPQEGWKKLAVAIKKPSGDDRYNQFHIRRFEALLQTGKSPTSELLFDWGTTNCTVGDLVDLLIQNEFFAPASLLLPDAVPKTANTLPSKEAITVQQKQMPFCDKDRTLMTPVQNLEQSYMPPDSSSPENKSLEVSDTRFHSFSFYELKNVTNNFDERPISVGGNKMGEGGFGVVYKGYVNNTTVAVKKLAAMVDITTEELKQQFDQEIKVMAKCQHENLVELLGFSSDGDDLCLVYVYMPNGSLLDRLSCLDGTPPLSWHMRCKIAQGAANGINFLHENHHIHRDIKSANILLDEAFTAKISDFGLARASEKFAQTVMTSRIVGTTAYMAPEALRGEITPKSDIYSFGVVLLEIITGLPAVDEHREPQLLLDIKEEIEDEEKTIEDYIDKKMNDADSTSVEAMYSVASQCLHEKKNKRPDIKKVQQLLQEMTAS
compound,measurement,setting,value
"CN1C/C=C/CCOc2cccc(c2)-c2ccnc(n2)Nc2cccc(c2)C1 [TG02, (16E)-14-methyl-20-oxa-5,7,14,27-tetraazatetracyclo[19.3.1.12,6.18,12]heptacosa-1(25),2(27),3,5,8(26),9,11,16,21,23-decaene]",most common toxicities (≥20%),[1]; adults with acute leukemia,"nausea, vomiting, fatigue, abdominal pain, diarrhea, constipation, and hypophosphatemia"
same,serious adverse events,[1]; adults with hematologic malignancies,"nausea and vomiting (grades 2 and 3), fatigue (grade 3), altered mental status (grade 2), rash (grade 3), thrombocytopenia (grade 4), and neutropenic fever with sepsis (grade 3)"
same,maximum tolerated dose (MTD),"[1]; intermittent TG02 with fixed doses of carfilzomib, twice a week for 21 of 28 days",250 mg per dose
same,toxicity to normal cells,[2],not toxic
same,inhibition at 100 nm,Abl,less than 50%
same,inhibition at 100 nm,ALK,less than 50%
same,inhibition at 100 nm,PAK2,less than 50%
same,in vivo ERK5 auto-phosphorylation,[3],inhibition of ERK5 auto-phosphorylation
same,in vivo apoptosis by cleaved PARP,[3],induction of apoptosis
same,inhibition at 100 nm,IKK-β,less than 50%
same,IC50,FLT3,19 nM
same,substrate of CYP3A4,CYP3A4,substrate
same,blood-brain barrier penetration,"[4]; mouse, in vivo",blood-brain barrier penetrant
same,Cmax in the brain compared to plasma,[4]; single PO dose of 75 mg/kg,at least twice as high
same,exposure (AUC0-last) in the brain compared to plasma,[4]; single PO dose of 75 mg/kg,at least twice as high
same,inhibition at 100 nm,CK1α1,less than 50%
same,IC50,[5],56 nM
same,inhibition at 100 nm,Chk1,less than 50%
same,phosphorylation of MYC(S62) by ERK5,ERK5,inhibited
same,inhibition at 100 nm,PKCε,less than 50%
same,phospho MYC (S62) and total MYC,[6],reduced phospho and total MYC
same,inhibition at 100 nm,Nek2,less than 50%
same,"most clinically significant toxicities, TG02 combined with RT","[7]; human, in vivo",grade 2 nausea and vomiting and grade 3 neutropenia
same,"significant drug-related toxicities, single agent",[7]; twice a week in older adults,increased liver function tests and grade 3 neutropenia
same,MTD as single-agent,"[7]; twice a week in older adults, probably",~150 mg per dose
same,inhibition at 100 nm,PKA,less than 50%
same,IC50,CDK3,8 nM
same,inhibition at 100 nm,IRAK4,less than 50%
